According to the supplement of paper PMC10307832:

How the values were obtained:
Assay in all cases: relative viability (nuclei count vs DMSO), 5 days (fraction); higher = more cells survive
[1] = compound: COc1cc2nc(N3CCCN(C)CC3)nc(NC3CCN(Cc4ccccc4)CC3)c2cc1OC + N=C(N)NC(=N)NCCc1ccccc1 [Phenformin] (partner 250 µM)
Method in brief: (§1)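 A single step with final 0.05% Triton X-100, 1% formaldehyde and 1 ug/ml Hoechst fixed the cells and stained nuclei 5 days after treatment. Lung cancer cell lines in 1536-well plates had been treated by pin tool the day after seeding with one drug alone or a fixed anchor-drug dose plus five library-drug doses (not always all listed) in √10 steps, and nuclei were counted on 4× images. Relative viability is the ratio of nuclei in treated wells to nuclei in vehicle wells, taken as the median of duplicate plates.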

[2] = compound: COc1cc2nc(N3CCCN(C)CC3)nc(NC3CCN(Cc4ccccc4)CC3)c2cc1OC + O=C(CCCCCCC(=O)Nc1ccccc1)NO [Vorinostat] (partner 1 µM)
Method in brief: as §1

[3] = compound: Cc1cc([C@@H](C)Nc2ccccc2C(=O)O)c2nc(N3CCOCC3)cc(=O)n2c1 [AZD6482] + CS(=O)(=O)CCNCc1ccc(-c2ccc3ncnc(Nc4ccc(OCc5cccc(F)c5)c(Cl)c4)c3c2)o1 [Lapatinib] (partner 2 µM)
Method in brief: as §1

[4] = compound: Cc1cc([C@@H](C)Nc2ccccc2C(=O)O)c2nc(N3CCOCC3)cc(=O)n2c1 [AZD6482] + O=C(CCCCCCC(=O)Nc1ccccc1)NO [Vorinostat] (partner 1 µM)
Method in brief: as §1

Cell Line | relative viability ([1]; first compound 0.2 µM) | relative viability ([1]; first compound 0.6325 µM) | relative viability ([1]; first compound 2 µM) | relative viability ([1]; first compound 6.325 µM) | relative viability ([2]; first compound 0.2 µM) | relative viability ([2]; first compound 0.6325 µM) | relative viability ([2]; first compound 2 µM) | relative viability ([2]; first compound 6.325 µM) | relative viability ([3]; first compound 0.08 µM) | relative viability ([3]; first compound 0.253 µM) | relative viability ([3]; first compound 0.8 µM) | relative viability ([3]; first compound 8 µM) | relative viability ([4]; first compound 0.08 µM) | relative viability ([4]; first compound 0.253 µM) | relative viability ([4]; first compound 0.8 µM) | relative viability ([4]; first compound 8 µM) | relative viability ([3]; first compound 2.53 µM) | relative viability ([4]; first compound 2.53 µM)
NCI-H727 | 0.478 | 0.415 | 0.447 | 0.348 | 1.27 | 1.14 | 1.15 | 1.07 | 0.659 | 0.843 | 0.951 | 0.667 | 1.1 | 1.11 | 1.17 | 0.96 | – | –
H3255 | 0.332 | 0.372 | 0.362 | 0.344 | 0.77 | 0.796 | 0.858 | 0.772 | 0.194 | 0.221 | 0.263 | 0.152 | 0.741 | 0.871 | 0.764 | 0.689 | 0.182 | 0.697
SK-MES-1 | 0.656 | 0.626 | 0.696 | 0.541 | 1.02 | 1.04 | 1.22 | 0.472 | 0.363 | 0.366 | 0.367 | 0.319 | 0.842 | 1.05 | 1.02 | 0.684 | 0.301 | 0.594
NCI-H1437 | 0.261 | 0.329 | 0.326 | 0.297 | 0.871 | 0.778 | 0.982 | 0.734 | 0.727 | 0.747 | 0.769 | 0.421 | 0.955 | 0.921 | 0.997 | 0.468 | 0.592 | 0.738
LU99A | 0.846 | 0.827 | 0.691 | 0.857 | 0.473 | 0.546 | 0.517 | 0.44 | 0.972 | 0.881 | 0.938 | 0.866 | 0.473 | 0.403 | 0.49 | 0.409 | 0.751 | 0.414
HCC-827 | 0.405 | 0.431 | 0.294 | 0.402 | 0.899 | 0.786 | 0.784 | 0.826 | 0.164 | 0.174 | 0.196 | 0.177 | 0.801 | 0.795 | 0.912 | 0.686 | 0.177 | 0.649
LK-2 | 0.504 | 0.569 | 0.576 | 0.311 | 0.302 | 0.194 | 0.364 | 0.209 | 1.13 | 0.645 | 0.959 | 0.815 | 0.374 | 0.276 | 0.298 | 0.258 | 0.767 | 0.384
HCC-366 | 0.577 | 0.576 | 0.613 | 0.639 | 0.332 | 0.33 | 0.254 | 0.284 | 0.9 | 0.97 | 1.11 | 0.532 | 0.269 | 0.26 | 0.457 | 0.203 | 0.579 | 0.269
BEN | 0.252 | 0.251 | 0.229 | 0.276 | 0.608 | 0.54 | 0.636 | 0.552 | 0.732 | 0.722 | 0.671 | 0.687 | 0.541 | 0.546 | 0.594 | 0.578 | 0.553 | 0.467
